{
  "source": "paper PMC6813295",
  "about": "“A tumour-selective cascade activatable self-detained system for drug delivery and cancer imaging” (Nature Communications, 2019)",
  "format": "physicochemical",
  "procedure": "microscopy (UltraVIEW VoX).\nH460 cells (1 x 10^5 cells per well) were seeded in a confocal microscopy dish (MatTek). After culture for 24 h, the cells were treated with P7 (XIAP inhibitor) (50 μM) or […] (caspase inhibitor) (10 μM) for 3 h and followed by PBS washing. And then the molecule 1 (50 μM) and 2 (50 μM) were individually added for 1 h and followed by PBS washing and fresh medium replacement.\nAfter further 6 h of incubation, the cells were washed twice by PBS and stained with bisBenzimide H 33342 trihydrochloride (Hoechst 33342) (1 mg ml-1; Life Technologies) at 37 °C for 10 min. […]\n[Cy]0 is the initial concentration of the molecule 1 or 4, [Cy]t is the concentration of the molecule 1 or […] after the irradiation of t min. Based on Beer rule, it has the linear relation between the concentration of the molecule 1 or 4 and the absorbance in maximal wavelength for the low concentration cyanine dye. […]\nA0 is the absorbance in maximal wavelength before the irradiation, and At is the absorbance in maximal wavelength after the irradiation. […]\nThe pathway of molecule 1 entering cells. […] Subsequently, H460 cells were treated with molecule 1 (50 uM), after 2 h of incubation at 37 ℃ the medium was removed and the cells were washed three times with PBS and analysed by confocal laser scanning […]",
  "note": "Where a SMILES comes first, the peptide text is derived from it. The star is where a group is joined. X1 = CC1(C)C(=CC=C2CCCC(C=CC3=[N+](CCCCCC(=O)O)c4ccccc4C3(C)C)=C2*)N(CCCCCC(=O)O)c2ccccc21",
  "data": [
    {"smiles": "CC[C@H](C)[C@H](NC(=O)[C@@H]1CCCN1C(=O)[C@@H](NC(=O)[C@H](C)N)C(C)C)C(=O)N[C@@H](C)C(=O)N[C@@H](CCC(N)=O)C(=O)N[C@@H](CCCCN)C(=O)N[C@@H](CC(=O)O)C(=O)N[C@@H](CCC(=O)O)C(=O)N[C@H](C(=O)N[C@@H](CC(=O)O)C(=O)N[C@@H](CCCCN)C(=O)N[C@@H](CC(C)C)C(=O)N[C@H](C(=O)N[C@@H](Cc1ccccc1)C(=O)N[C@@H](Cc1ccccc1)C(=O)N[C@@H](C)C(=O)N[C@@H](CCC(=O)O)C(=O)N[C@@H](CSC1=C(C=CC2=[N+](CCCCCC(=O)O)c3ccccc3C2(C)C)CCCC1=CC=C1N(CCCCCC(=O)O)c2ccccc2C1(C)C)C(=O)NCC(=O)O)C(C)C)C(C)C", "note": "[molecule 1] (H-AVPIAQKDEVDKLVFFAEC(X1)G-OH)", "values": [
      {"measurement": "photobleaching after irradiation for 6 h", "setting": "irradiation 6 h, pure water, Suppl. Fig. 16: xenon flash lamp, 5 μM in PBS buffer 10 mM pH 7.4, r.t., absorbance at 780 nm", "result": 42, "unit": "%"},
      {"measurement": "photodegradation rate of molecule 1 relative to that of 4", "setting": "rate constants k from ln(A0/At) = kt, tested in parallel", "result": 7.5, "unit": "fold"}
    ]}
  ]
}
